Entries after “also recorded” stand apart in the source; their conditions may differ. Where no end group is shown, it is not given here.
Columns and labels:
MCA-205 sarcoma [1] = experiment: MCA-205 sarcoma growth in FMT-treated mice, CTX plus oral gavage with E. hirae strains; format: in vivo; conditions: for antitumor effect together with CTX (summary statements): MCA205 tumor model together with CTX; for boost of CTX tumoricidal activity (MCA-205 tumor growth): dysbiotic FMT from BC patient, 3 cycles CTX 100 mg/kg, oral gavage 1.10^9 bacteria; for Anti-tumor effect: summary of the characteristics of the strains, with CTX, MCA205 sarcoma
Protocol: FIG. 1. Experimental setting. (A) Mice are treated with broad spectrum antibiotics (streptomycin, colistin, ampicillin and vancomycine) for 3 days before performing Fecal Microbiota Transplantation (FMT). 14 days post-FMT, MCA-205 sarcoma cell lines are inoculated in the right flank of mice (8.10^5 cells per mice). […] (B) Non FMT-treated SPF mice are used as control.
FIG. 2. Dysbiosis by FMT BC patient 1: Effectiveness of E. hirae 13144 to restore CTX-mediated antitumor effects. […] (C) Tumor growth curves of MCA-205 sarcoma in FMT-treated mice after oral gavage with strain E. hirae 13144 or NaCl as control. 2 independent experiments are depicted. (D) Overall survival of FMT-treated, MCA-205 sarcoma bearing mice treated with CTX or NaCl after oral gavage with strain E. hirae 13144. A typical survival curve is depicted for six mice per group. (E) Concatenated data of tumor sizes at day 21 post-CTX from 2 independent experiments are shown.
FIG. 3. […] (C) Tumor growth curves of MCA-205 sarcoma in FMT-treated mice after oral gavage with strain E. hirae 13144 or NaCl as control. 2 independent experiments are depicted. (D) Concatenated data of tumor sizes at day 21 post-CTX from 2 independent experiments are shown.
FIG. 4. […] Tumor growth curves of MCA-205 sarcoma in FMT-treated mice after oral gavage with strain E. hirae 13144 (A), IGR1 (B) or NaCl as control. A typical curve is depicted for six mice per group. (C) Concatenated data of tumor sizes at day 17 post-CTX from 1-2 independent experiments are shown. (D). Comparaison of various strains of E. hirae for their capacity to control tumor growth. […] EH10815 fails to work and that may be related to a mutation residing in TMP2 (see below FIG. 13B).
FIG. 5. […] (A) Tumor surface of MCA-205 sarcoma in FMT-treated mice after oral gavage with strain E. hirae 13144, IGR4, IGR7, Actinomycetes spp (Ao) and injected with 3 cycles of CTX (C) vs NaCl (N). Each dot is one mouse/tumor. (B) Tumor growth curves of MCA-205 sarcoma in SPF mice of the best group, means+SEM of tumor sizes at each time point and tumor sizes at sacrifice (C: CTX). Each dot is one mouse/tumor. Anova statistics indicating significant differences between CTX and the triple combination. (C) Tumor surface of MCA-205 sarcoma in FMT-treated mice after oral gavage with strains EH13144, IGR1, IGR11, Barnesiella or Akkermansia and injected with 3 cycles of CTX. Bacterial strains are used alive (V) or pasteurized (P). For pasteurization, bacteria are incubated 30 min at 70° C. and frozen at −80° C. at least 6 hours.
FIG. 6. […] Tumor growth curves of MCA-205 sarcoma in FMT-treated mice after oral gavage with strain E. hirae 13144 alive (A), pasteurized (B) or NaCl as control. A typical curve is depicted for six mice per group. (C) Concatenated data of tumor sizes at day 17 post-CTX from 3 independent experiments are shown.

BM-DC = experiment: IL-1B and IL-12 production by BM-DC; format: cell-based; conditions: data not shown
MCA-205 sarcoma [2] = experiment: MCA205 sarcoma growth in antibiotic-treated SPF C57BL/6 mice, CTX plus oral gavage with bacteria; format: in vivo; conditions: ATB 3 days, CTX 100 mg/kg x3, weekly oral gavages, FIG. 27B
Protocol: (§1) A and C. Experimental setting. […] D-E. Ex vivo recall assays. […] Each dot represents one mouse.
A-B. Prophylactic vaccinations. […] C-D. Therapeutic settings.
Mice were treated during 3 days with an antibiotic solution (ATB) containing ampicillin (1 mg/ml), streptomycin (5 mg/ml), colistin (1 mg/ml) (Sigma-Aldrich) and vancomycin (0.25 mg/ml) added in the sterile drinking water of mice. Antibiotic activity was confirmed by cultivating fecal pellets resuspended in BHI+15% glycerol at 0.1 g/ml on COS (BD Columbia Agar with 5% Sheep Blood) plates for 48 h at 37° C. in aerobic and anaerobic conditions. In the context of bacterial transplantation experiments, mice received 3 days of ATB before undergoing bacterial transplantation the next day by oral gavage using animal feeding needles.
Syngeneic C57BL/6 mice were implanted with 0.8×10^6 MCA-205 WT sarcoma cells subcutaneously and treated intraperitoneally (i.p.) when tumors reached 20 to 35 mm^2 in size with CTX (100 mg/kg). Depending on the experimental setting, mice were injected once or 3 times at 1-week interval. Tumor size was routinely monitored every 3 days by means of a caliper.
Enterococcus hirae 13144 were originally isolated from spleens of SPF mice treated with CTX in our laboratory.

[3] = tested on: TMP1-specific CD8+ T cells; conditions: FIG. 27H
[4] = molecular target: fluorescent H-2K^b/[…] (SEQ ID No: 13) tetrameric complex (mouse; Enterococcus hirae 13144 (39.2 kb prophage, TMP)) (UniProt P01901); experiment: flow cytometry with the fluorescent H-2K^b/… tetramer
splenic CD8+ T cells = experiment: IFNγ ELISpot recall assay of splenic CD8+ T cells with DCs pulsed with heat-inactivated bacteria or peptides; format: cell-based, mice; conditions: for recall responses to TMP1, TMP2 and Group7 after in vivo immunization with the strain: Example 3, FIG. 13E; for TC1 response against TMP1 in mice gavaged with the strain (IFNγ ELISpot): Example 12, FIG. 27E
Protocol: FIG. 9. Experimental immunization protocols to elucidate the immunogenicity of EH peptides. […] 5 days after the first oral gavage, mice are treated with CTX. One week post-CTX, CD8+ T cells are isolated from spleen. These CD8+ T cells are incubated with dendritic cells (DCs) pulsed with 20 μg/ml of peptides (during 1 hour) or with heat-inactivated bacteria (during 6 hours). Inactivation of bacteria consists in incubation at 65° C. during 2 hours. After 24 hours of culture, ELIspot of IFNγ is performed.
FIG. 10. Cross-reactivity between the two E. hirae 708 and 13144 species for CTL splenic reactivity. Number of IFNγ spot representing IFNγ-secreting CD8+ T cells after co-culture with DCs pre-incubated with or without heat-inactivated bacteria (708, 13144, EH17 and L. plantarum).
FIG. 13. Peptides from group 7 containing the TMP1 and TMP2 epitopes activate CD8+ T cells from spleen of mice immunized against E. hirae 13144. Number of IFNγ spot, representing IFNγ-secreting CD8+ T cells, after incubation with DCs pulsed with 13 different group of peptide (Table 6). Just group n° 1 (A) and group n° 7 (B) are shown. (C, E) Number of IFNγ spot, representing IFNγ-secreting CD8+ T cells, after incubation with DCs pulsed with 4 peptides belong to group n° 7 (in table 7). (D) Sequence alignment of TMP1 and TMP2 of EH10815 (SEQ ID Nos: 228 and 229 respectively) compared to EH13144 (fragments of SEQ ID NO: 1) at the level of immunogenic peptides. Amino acid sequence […] corresponds to SEQ ID No: 13. Amino acid sequence […] corresponds to SEQ ID No: 217. Amino acid sequence […] corresponds to SEQ ID Nos: 14. Amino acid sequence AlIEFIKGL corresponds to SEQ ID No: 218. (E) In vitro reactivity of splenic CTL in a recall response to TMP1 and TMP2 as well as Group7 after in vivo immunization with other strains of EH.
as §1

[5] = tested on: CD8+ T cells from HLA-A02*01 healthy volunteers; experiment: IFNγ ELISpot of CD8+ T cells from HLA-A2 healthy volunteers stimulated with TMP epitopes; format: cell-based, human; conditions: Example 7, FIG. 24B
[6] = tested on: MCA205 cells with PSMB4 GSFARFRNI knock-in; experiment: Growth of Psmb4 knock-in MCA205 tumors under CTX +/- E. hirae 13144; format: in vivo, mice; conditions: L→F exchange in position 3, versus WT MCA205
pTh17 cells = experiment: Induction of pTh17 cells in secondary lymphoid organs of CTX-treated animals; format: in vivo
Description: The reasons for these differences were however unknown, and the inventors pursued their research to identify the factor(s) responsible for the immunogenic properties of the murine strain EH13144 and the human clones IGR4, IGR7 and IGR11, in order to derive new molecules or microorganisms useful in the treatment of cancer.

[7] = tested on: IFNg producing CD8^+ T (Tc1) cells; conditions: naïve mice; cited from earlier work

## Enterococcus hirae strain IGR11 [IGR 11]
MCA-205 sarcoma [1]
  antitumor effect together with CTX (summary statements): efficient to mediate some tumoricidal activity
  boost of CTX tumoricidal activity (MCA-205 tumor growth): not immunogenic
  Anti-tumor effect: Yes
MCA-205 sarcoma [1]; listed as clone IGR11
  antitumor effect together with CTX (summary statements): to some extent
BM-DC
  IL-1B and IL-12 production by BM-DC: as effective as EH13144
MCA-205 sarcoma [2]
  restoration of antibiotic-perturbed anticancer effects of CTX (MCA205 growth): efficient
MCA-205 sarcoma [2]; listed as E. hirae IGR11
  restoration of antibiotic-perturbed anticancer effects of CTX (MCA205 growth): as efficient as E. hirae 13144
[3]
  proportion of splenic TMP1-specific CTLs after immunization with the strain (tetramer): high proportion

## splenic CD8+ T cells of mice gavaged with E. hirae 13144 and treated with CTX (cells without a defined receptor)
[4]
  percentage of splenic CD8+ T cells recognising the tetramer: < 1%

## Enterococcus hirae strain IGR4 [IGR 4]
MCA-205 sarcoma [1]
  antitumor effect together with CTX (summary statements): effective at synergizing with CTX
  boost of CTX tumoricidal activity (MCA-205 tumor growth): also immunogenic
  Anti-tumor effect: Yes
MCA-205 sarcoma [1]; listed as EH IGR 4
  boost of CTX tumoricidal activity (MCA-205 tumor growth): efficacy comparable to EH 13144

## Enterococcus hirae ATCC9790 [10815 (ATCC9790), reference compound]
MCA-205 sarcoma [1]
  boost of CTX tumoricidal activity (MCA-205 tumor growth): failed to efficiently boost CTX tumoricidal activity
  Anti-tumor effect: No
MCA-205 sarcoma [1]; listed as EH10815
  boost of CTX tumoricidal activity (MCA-205 tumor growth): did not mediate antitumor effects; also recorded: fails to work
MCA-205 sarcoma [2]
  restoration of antibiotic-perturbed anticancer effects of CTX (MCA205 growth): reduced anticancer effect
Splenic CD8+ T cells
  recall responses to TMP1, TMP2 and Group7 after in vivo immunization with the strain: does not induce recall responses
  TC1 response against TMP1 in mice gavaged with the strain (IFNγ ELISpot): unable to do so

## LLGIYQSYV
[5]
  immunogenicity in humans of HLA-A0201-restricted epitopes: immunogenicity of which has been experimentally confirmed

## O=P1(N(CCCl)CCCl)NCCCO1 (centres unmarked) [CTX, cyclophosphamide, reference compound]
[6]
  anticancer effect on PSMB4 knock-in (GSFARFRNI) MCA205 tumors: not interfering

## ILVAITTTI
[5]
  immunogenicity in humans of HLA-A0201-restricted epitopes: immunogenicity of which has been experimentally confirmed

## Enterococcus hirae IGR10 [IGR 10]
MCA-205 sarcoma [1]
  boost of CTX tumoricidal activity (MCA-205 tumor growth): failed to efficiently boost CTX tumoricidal activity
  Anti-tumor effect: No

## KLAKFASVV
[5]
  immunogenicity in humans of HLA-A0201-restricted epitopes: immunogenicity of which has been experimentally confirmed

## Enterococcus hirae strain IGR7 [IGR 7]
MCA-205 sarcoma [1]
  antitumor effect together with CTX (summary statements): proved immunogenic
  boost of CTX tumoricidal activity (MCA-205 tumor growth): also immunogenic
  Anti-tumor effect: Yes
MCA-205 sarcoma [1]; listed as clone IGR7
  antitumor effect together with CTX (summary statements): effective at synergizing with CTX
MCA-205 sarcoma [1]; listed as EH IGR 7
  boost of CTX tumoricidal activity (MCA-205 tumor growth): efficacy comparable to EH 13144
MCA-205 sarcoma [2]
  restoration of antibiotic-perturbed anticancer effects of CTX (MCA205 growth): efficient
MCA-205 sarcoma [2]; listed as E. hirae IGR7
  restoration of antibiotic-perturbed anticancer effects of CTX (MCA205 growth): as efficient as E. hirae 13144
pTh17 cells
  capacity to induce pTh17 cells in secondary lymphoid organs: significant capacity to induce pTh17 cells
Splenic CD8+ T cells
  recall responses to TMP1, TMP2 and Group7 after in vivo immunization with the strain: induce recall responses
[3]
  proportion of splenic TMP1-specific CTLs after immunization with the strain (tetramer): high proportion

## RLLKYDVGV
[5]
  immunogenicity in humans of HLA-A0201-restricted epitopes: immunogenicity of which has been experimentally confirmed

## Enterococcus hirae 13344 [EH17 (13344), reference compound]
MCA-205 sarcoma [1]
  Anti-tumor effect: No
[7]
  immunogenic and oncomicrobiotic properties of the isolate: no immunogenic nor oncomicrobiotic properties
MCA-205 sarcoma [2]
  restoration of antibiotic-perturbed anticancer effects of CTX (MCA205 growth): reduced anticancer effect
pTh17 cells
  capacity to induce pTh17 cells in secondary lymphoid organs: did not
Splenic CD8+ T cells; Example 2, FIG. 10, splenic CD8+ T cells after gavage + CTX, ELISPOT at 24 hrs
  memory Tc1 immune response (IFNγ spots) to BM-DC infected with EH isolates: failed to do so
Splenic CD8+ T cells
  TC1 response against TMP1 in mice gavaged with the strain (IFNγ ELISpot): unable to do so

## Enterococcus hirae IGR1 [IGR 1]
MCA-205 sarcoma [1]
  boost of CTX tumoricidal activity (MCA-205 tumor growth): not immunogenic; also recorded: failed to efficiently boost CTX tumoricidal activity
  Anti-tumor effect: No
BM-DC
  IL-1B and IL-12 production by BM-DC: as effective as EH13144

## KMVEILEEI
[5]
  immunogenicity in humans of HLA-A0201-restricted epitopes: immunogenicity of which has been experimentally confirmed

## AMIEFIQGL
Splenic CD8+ T cells; Example 3, FIG. 13/32, DCs pulsed with 20 μg/ml peptides
  recognition of peptides by memory EH13144-induced Tc1 cells (IFNγ ELISpot): highly recognized

From patent US12102672B2, “Immunogenic sequences from a phage tail length tape measure protein, bacteria expressing the same and their use in treating a cancer” (INSTITUT GUSTAVE ROUSSY, priority 2017, dated 2024)
